Data taken from ChEMBL document CHEMBL5247622, “Structural optimization of Imidazo[1, 2-a]pyridine derivatives for the treatment of gastric cancer via STAT3 signaling pathway” (Eur J Med Chem, 2022).
Calls of active or inactive are those of the source. The rule behind the calls is not given here.

Columns and labels:
AGS [1] = assay: Antiproliferative activity against human AGS cells assessed as reduction in cell viability incubated for 72 hrs by CCK-8 assay; assay type: functional, cell-based
MGC-803 [2] = assay: Antiproliferative activity against human MGC-803 cells assessed as reduction in cell viability incubated for 72 hrs by CCK-8 assay; assay type: functional, cell-based; details: MGC-803, 72 h
[3] = molecular target: Signal transducer and activator of transcription 3 (Homo sapiens) (UniProt P40763); assay: Inhibition of STAT3 (unknown origin) transcriptional signaling transfected in HEK293T cells at 3 uM incubated for 24 hrs by firefly luciferase gene reporter assay; assay type: cell-based
[4] = molecular target: Signal transducer and activator of transcription 3 (Homo sapiens) (UniProt P40763); assay: Inhibition of STAT3 in human AGS cells assessed as inhibition of STAT3 phosphorylation level at Tyr705 at 0.3 to 3 uM by western blot assay; assay type: cell-based; details: dose 0.3-3 µM
[5] = molecular target: Signal transducer and activator of transcription 3 (Homo sapiens) (UniProt P40763); assay: Inhibition of HA-tagged STAT3 (unknown origin) dimerization transfected in HEK293T cells at 0.3 to 3 uM incubated for 24 hrs followed by IL-6 stimulation and measured after 1 hr by immunoprecipitation assay; assay type: cell-based; details: dose 0.3-3 µM, time 25.0 hrs
[6] = molecular target: Signal transducer and activator of transcription 3 (Homo sapiens) (UniProt P40763); assay: Inhibition of Flag-tagged STAT3 (unknown origin) dimerization transfected in HEK293T cells at 0.3 to 3 uM incubated for 24 hrs followed by IL-6 stimulation and measured after 1 hr by immunoprecipitation assay; assay type: cell-based; details: dose 0.3-3 µM, time 25.0 hrs
[7] = molecular target: Signal transducer and activator of transcription 3 (Homo sapiens) (UniProt P40763); assay: Inhibition of STAT3 in human AGS cells assessed as reduction of c-Myc protein expression level at 0.3 to 3 uM by western blot assay; assay type: cell-based; details: dose 0.3-3 µM
[8] = molecular target: Signal transducer and activator of transcription 3 (Homo sapiens) (UniProt P40763); assay: Inhibition of STAT3 in human AGS cells assessed as reduction of Mcl-1 protein expression level at 0.3 to 3 uM by western blot assay; assay type: cell-based; details: dose 0.3-3 µM
AGS [9] = assay: Inhibition of colony formation in human AGS cells at 0.3 to 3 uM incubated for 10 to 15 days by crystal violet staining based assay; assay type: functional, cell-based; details: dose 0.3-3 µM, time 10-15 day
MGC-803 [10] = assay: Inhibition of colony formation in human MGC-803 cells at 0.3 to 3 uM incubated for 10 to 15 days by crystal violet staining based assay; assay type: functional, cell-based; details: dose 0.3-3 µM, time 10-15 day
AGS [11] = assay: Induction of apoptosis in human AGS cells assessed as viable cells at 0.3 uM incubated for 48 hrs by Annexin V-FITC/PI staining based flow cytometry method (reference value: 94.8 %); assay type: functional; details: read-out: Activity
AGS [12] = assay: Induction of apoptosis in human AGS cells assessed as early apoptotic cells at 0.3 uM incubated for 48 hrs by Annexin V-FITC/PI staining based flow cytometry method (reference value: 2.38 %); assay type: functional
AGS [13] = assay: Induction of apoptosis in human AGS cells assessed as early apoptotic cells at 1 uM incubated for 48 hrs by Annexin V-FITC/PI staining based flow cytometry method (reference value: 2.38 %); assay type: functional
AGS [14] = assay: Induction of apoptosis in human AGS cells assessed as early apoptotic cells at 3 uM incubated for 48 hrs by Annexin V-FITC/PI staining based flow cytometry method (reference value: 2.38 %); assay type: functional
AGS [15] = assay: Induction of apoptosis in human AGS cells assessed as late apoptotic cells at 0.3 uM incubated for 48 hrs by Annexin V-FITC/PI staining based flow cytometry method (reference value: 2.46 %); assay type: functional
AGS [16] = assay: Induction of apoptosis in human AGS cells assessed as late apoptotic cells at 1 uM incubated for 48 hrs by Annexin V-FITC/PI staining based flow cytometry method (reference value: 2.46 %); assay type: functional
AGS [17] = assay: Induction of apoptosis in human AGS cells assessed as late apoptotic cells at 3 uM incubated for 48 hrs by Annexin V-FITC/PI staining based flow cytometry method (reference value: 2.46 %); assay type: functional
AGS [18] = assay: Induction of apoptosis in human AGS cells assessed as necrotic cells at 0.3 uM incubated for 48 hrs by Annexin V-FITC/PI staining based flow cytometry method (reference value: 0.32 %); assay type: functional
AGS [19] = assay: Inhibition of cell migration in human AGS cells at 0.03 to 0.3 uM incubated for 48 hrs by wound healing assay based microscopic analysis; assay type: functional; details: dose 0.03-0.3 µM
MGC-803 [20] = assay: Inhibition of cell migration in human MGC-803 cells at 0.03 to 0.3 uM incubated for 48 hrs by wound healing assay based microscopic analysis; assay type: functional; details: dose 0.03-0.3 µM
AGS [21] = assay: Inhibition of cell invasion in human AGS cells at 0.03 to 0.3 uM incubated for 12 hrs by crystal violet staining based transwell assay; assay type: functional; details: dose 0.03-0.3 µM
MGC-803 [22] = assay: Inhibition of cell invasion in human MGC-803 cells at 0.03 to 0.3 uM incubated for 12 hrs by crystal violet staining based transwell assay; assay type: functional; details: dose 0.03-0.3 µM
MGC-803 [23] = assay: Antitumor activity against human MGC-803 cells xenografted in BALB/c mouse assessed as tumor growth inhibition at 15 mg/kg,ip administrated for 21 consecutive days relative to control; assay type: functional; details: read-out: TGI
[24] = Toxicity in BALB/c mouse xenografted with human MGC-803 cells assessed as body weight loss at 15 mg/kg,ip administrated for 21 consecutive days; assay type: organism-based; details: in vivo
[25] = Toxicity in BALB/c mouse xenografted with human MGC-803 cells assessed as morphological change in heart at 5 mg/kg,ip administrated for 21 consecutive days by hematoxylin and eosin staining method; assay type: organism-based; details: in vivo
[26] = Toxicity in BALB/c mouse xenografted with human MGC-803 cells assessed as morphological change in liver at 5 mg/kg,ip administrated for 21 consecutive days by hematoxylin and eosin staining method; assay type: organism-based; details: in vivo
[27] = Toxicity in BALB/c mouse xenografted with human MGC-803 cells assessed as morphological change in spleen at 5 mg/kg,ip administrated for 21 consecutive days by hematoxylin and eosin staining method; assay type: organism-based; details: in vivo
[28] = Toxicity in BALB/c mouse xenografted with human MGC-803 cells assessed as morphological change in lung at 5 mg/kg,ip administrated for 21 consecutive days by hematoxylin and eosin staining method; assay type: organism-based; details: in vivo
[29] = Toxicity in BALB/c mouse xenografted with human MGC-803 cells assessed as morphological change in kidney at 5 mg/kg,ip administrated for 21 consecutive days by hematoxylin and eosin staining method; assay type: organism-based; details: in vivo
[30] = Toxicity in BALB/c mouse xenografted with human MGC-803 cells assessed as morphological change in spleen at 15 mg/kg,ip administrated for 21 consecutive days by hematoxylin and eosin staining method; assay type: organism-based; details: in vivo
[31] = Toxicity in BALB/c mouse xenografted with human MGC-803 cells assessed as morphological change in kidney at 15 mg/kg,ip administrated for 21 consecutive days by hematoxylin and eosin staining method; assay type: organism-based; details: in vivo
MGC-803 [32] = assay: Antitumor activity against human MGC-803 cells xenografted in BALB/c mouse assessed as reduction of Ki67 expression level in tumor at 5 mg/kg,ip administrated for 21 consecutive days by immunohistochemistry analysis; assay type: functional, organism-based
[33] = molecular target: Signal transducer and activator of transcription 3 (Homo sapiens) (UniProt P40763); assay: In vivo inhibition of STAT3 in BALB/c mouse xenografted with human MGC-803 cells assessed as reduction of STAT3 phosphorylation level at Tyr705 in tumor at 15 mg/kg,ip administrated for 21 consecutive days by immunohistochemistry analysis; assay type: functional, organism-based
[34] = molecular target: Signal transducer and activator of transcription 3 (Homo sapiens) (UniProt P40763); assay: In vivo inhibition of STAT3 in BALB/c mouse xenografted with human MGC-803 cells assessed as reduction of c-Myc expression in tumor at 5 mg/kg,ip administrated for 21 consecutive days by immunohistochemistry analysis; assay type: functional, organism-based

Chain of Signal transducer and activator of transcription 3 (Homo sapiens) (P40763 whole entry): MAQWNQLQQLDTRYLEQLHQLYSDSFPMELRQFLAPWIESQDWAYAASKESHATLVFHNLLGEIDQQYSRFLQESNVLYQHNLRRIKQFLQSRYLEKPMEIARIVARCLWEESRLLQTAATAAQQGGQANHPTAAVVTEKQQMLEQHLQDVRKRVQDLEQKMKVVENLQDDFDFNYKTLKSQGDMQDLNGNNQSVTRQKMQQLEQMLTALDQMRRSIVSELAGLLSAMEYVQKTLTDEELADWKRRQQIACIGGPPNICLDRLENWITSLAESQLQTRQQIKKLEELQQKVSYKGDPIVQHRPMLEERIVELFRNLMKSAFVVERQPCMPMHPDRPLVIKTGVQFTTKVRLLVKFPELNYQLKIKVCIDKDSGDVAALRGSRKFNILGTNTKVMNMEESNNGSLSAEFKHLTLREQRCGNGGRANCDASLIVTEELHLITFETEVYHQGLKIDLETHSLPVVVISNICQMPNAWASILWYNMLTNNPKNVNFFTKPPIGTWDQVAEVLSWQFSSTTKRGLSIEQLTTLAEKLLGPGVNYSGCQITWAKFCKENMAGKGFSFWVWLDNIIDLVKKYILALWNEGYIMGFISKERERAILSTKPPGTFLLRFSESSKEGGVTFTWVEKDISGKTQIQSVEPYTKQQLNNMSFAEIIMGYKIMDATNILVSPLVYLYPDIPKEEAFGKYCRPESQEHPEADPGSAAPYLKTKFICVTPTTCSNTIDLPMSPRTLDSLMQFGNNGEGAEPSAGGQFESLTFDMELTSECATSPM

Compound: Cc1cc(NC(=O)c2ccc([N+](=O)[O-])o2)ccc1-c1cnc2ccccn12
- IC50 (AGS [1]): 390 nM
- IC50 (MGC-803 [2]): 900 nM
- inhibition [3]: Active
- inhibition [4]: Dose-Dependent Effect
- inhibition [5]: Dose-Dependent Effect
- inhibition [6]: Dose-Dependent Effect
- inhibition [7]: Active
- inhibition [8]: Active
- inhibition (AGS [9]): Dose-Dependent Effect
- inhibition (MGC-803 [10]): Dose-Dependent Effect
- viability at 0.3 µM (AGS [11]): 93.7%
- Activity (AGS [12]): 2.49%
- Activity (AGS [13]): 4.52%
- Activity (AGS [14]): 12.1%
- Activity (AGS [15]): 3.15%
- Activity (AGS [16]): 2.67%
- Activity (AGS [17]): 6.37%
- Activity (AGS [18]): 0.62%
- inhibition (AGS [19]): Dose-Dependent Effect
- inhibition (MGC-803 [20]): Dose-Dependent Effect
- inhibition (AGS [21]): Active
- inhibition (MGC-803 [22]): Active
- inhibition in vivo at 15 mg/kg (MGC-803 [23]): 73.4%
- Activity [24]: Non-Toxic
- Activity [25]: Non-Toxic
- Activity [26]: Non-Toxic
- Activity [27]: Non-Toxic
- Activity [28]: Non-Toxic
- Activity [29]: Non-Toxic
- Activity [30]: Non-Toxic
- Activity [31]: Non-Toxic
- inhibition (MGC-803 [32]): Active
- inhibition [33]: Active
- inhibition [34]: Active
